Measurements: patent US8309768B2, “FTY720-derived anticancer agents” (The Ohio State University Research Foundation, priority 2010, dated 2012)

Key:
CLL cells = experiment: Western blot analysis in CLL cells (PARP, caspase 3, caspase 9); format: cell-based
Excerpt: Western blot analysis as carried out to further observe the effects of OSU-2S in CLL cells. […] OSU-2S in CLL activates caspase, as evidenced by cleavage of poly (ADP-ribose) polymerase (PARP). Jurkat cell with or without UV irradiation were included as controls. […] OSU-2S was also shown to activate caspase 3 in CLL cells. […] Finally, OSU-2S activates caspase 9 in CLL.

primary CLL cells = experiment: Cytotoxicity in primary CLL cells (Annexin V / propidium iodide flow cytometry); format: cell-based; conditions: primary CLL cells, 24 hrs, OSU-2S at 8 μM
Description: Antitumor and other effects of OSU-2S were also evaluated in Chronic Lymphoid Leukemia cells. OSU-2S cytotoxicity in primary CLL cells is measured at 24 hrs by staining for Annexin V and Propidium Iodide using Flow cytometer. The number of live cells (stained negative for both the stains) were normalized to untreated control. Fludarabine metabolite (2-Fara) was used as a control.
The effect of OSU-2S was evaluated in 3 different CLL cell lines (WROTH<THOU, and RAHUE) over a 24 hour period, as shown in FIG. 9. Time dependent OSU-2S cytotoxicity in primary CLL cells was measured by treating the cells with OSU-2S (8 μM) for indicated period of time and washed and cultured in the fresh media for 24 hr. The number of live cells stained negative for Annexin V and Propidium Iodide were measured at 24 hrs by using Flowcytometer and normalized to untreated control.
CD37 activation and OSU-2S produced enhanced cytotoxicity in CLL cells, as detected by flow cytometer at 24 hr. in CLL cells treated with CD37 antibody and cross linker or OSU-2S 8 μM or with both are stained for Annexin V and propidium iodide at 24 hr.

[1] = system: subcutaneous Hep3B tumors; experiment: Ectopic (subcutaneous) Hep3B xenograft tumor model; format: in vivo, athymic nude mice
Description: (§1) Xenograft tumor models. Ectopic tumors were established in athymic nude mice by subcutaneous injection of 1×10^6 Hep3B cells in a total volume of 0.1 ml of serum-free medium containing 50% Matrigel. Mice with established tumors were randomized to five groups (n=8) that received daily i.p. injections of OSU-2S or FTY720 at 5 or 10 mg/kg, or the vehicle. Tumor burdens were determined weekly using calipers (volume=width^2×length×0.52). Body weights were measured weekly. At the study endpoint, tumors were harvested, snap-frozen and stored at −80° C. for biomarker analysis. Blood and tissues were collected for evaluation of complete blood counts, serum chemistry and histopathology.

Huh7 cells = experiment: MTT cell viability assay, Huh7; format: cell-based
Description: (§2) Cell lines, culture and reagents. The HCC cell lines Hep3B, PLC5 and Huh7, as well as primary nonmalignant human hepatocytes were used in this study. Cancer cells were cultured in Dulbecco's Modified Eagle's medium (DMEM) supplemented with 10% fetal bovine serum (FBS). Hepatocytes were maintained in defined Hepatocyte Culture Medium. […] Various polyclonal and monoclonal antibodies were used for western blotting, immunocytochemical, and flow cytometric analyses.
(§3) Cell viability assay. Cell viability was assessed by 3-(4,5-dimethylthiazol-2-yl)-2,5-diphenyl-2H-tetrazolium bromide (MTT) assays in six replicates. Cells were seeded (4,000 cells/well; 96-well plate) for 24 h and treated with test agents in 5% FBS-supplemented DMEM. After treatment, cells were incubated in medium containing 0.5 mg/ml MTT (37° C., 2 h). Reduced MTT was dissolved in DMSO (200 μL/well) and absorbances measured at 570 nm.

[2] = molecular target: T1, S1P1 receptor-overexpressing Huh7 cells (Homo sapiens, UniProt P21453); experiment: Immunocytochemical analysis of S1P1 receptor internalization; format: cell-based; conditions: immunocytochemistry
T1 construct: expressed in transfected cells
Description: Immunocytochemistry. Immunocytochemical analysis of S1P1 internalization and PKCδ nuclear translocation were performed as described. […] Briefly, treated cells were washed, fixed with 4% paraformaldehyde, and permeabilized with 0.1% Triton X-100. After blocking with 2% FBS, cells were incubated with rabbit anti-S1P1 or rabbit anti-PKCδ antibodies (1:200 dilution, 4° C., 24 h), followed by Alexa Fluor 488-conjugated goat anti-rabbit IgG (room temperature, 1 h). Nuclei were counterstained with a 4,6-diamidino-2-phenylindole (DAPI)-containing mounting medium (Vector Laboratories, Burlingame, Calif.).

[3] = system: lymphocytes in peripheral blood; experiment: In vivo evaluation of T-lymphocyte homing; conditions: CD2F1 mice, i.p., 6 h
Description: In vivo evaluation of T-lymphocyte homing. […] Six hours later, animals were sacrificed, and peripheral blood mononuclear cells were prepared as described. Dragun et al., Kidney Int 65, 1076-1083 (2004). Cells were stained with FITC-labeled rat anti-mouse CD3 molecular complex and PE-labeled rat anti-mouse CD45RA (4° C., in darkness, 30 min), and analyzed by flow cytometry.

normal human hepatocytes = experiment: MTT cell viability assay, normal hepatocytes; format: cell-based; conditions: 24 h
Description: as §2, §3

[4] = Toxicity evaluation in tumor-bearing mice (body weight, blood counts, histopathology); format: in vivo, athymic nude mice; conditions: for mice with abdominal adhesions with varying amounts of peritonitis: of six mice per group examined histologically
Description: as §1
(§4) Orthotopic tumors were established by direct intrahepatic injection of luciferase-expressing Hep3B (Hep3B-luc) cells as described. Omar et al., Mol Pharmacol, 76, 957-968 (2009). The establishment and growth of tumors were monitored by bioluminescent imaging using the IVIS™ imaging system (Xenogen, Alameda, Calif.). Two weeks after tumor cell injection, animals with established tumors were randomized to three groups (n=3) that received daily i.p. injections of FTY720 or OSU-2S at 5 mg/kg, or vehicle for 42 days and were imaged weekly. All animal use described in this manuscript was done in accordance with protocols approved by The Ohio State University Institutional Animal Care and Use Committee.

[5] = system: orthotopic Hep3B-luc tumors; experiment: Orthotopic Hep3B-luc xenograft tumor model; format: in vivo, athymic nude mice; set-up: dose or concentration left out as unconfirmed; conditions: by three weeks
Excerpt: as §4, with “Two weeks after tumor cell injection, animals with established tumors were randomized to three groups (n=3) that received daily i.p. injections of FTY720 or OSU-2S at 5 mg/kg, or vehicle for 42 days and were imaged weekly.” left out

[6] = system: SphK2 siRNA-transfected Huh7 cells; experiment: Cell viability after siRNA-mediated knockdown of SphK2; format: cell-based; conditions: SphK2 siRNA vs scrambled
Description: as §3
Small interfering (si)RNA- or short hairpin (sh)RNA-mediated knockdown. PLC5 and Huh7 cells were transfected with the following siRNA duplexes or shRNA plasmids according to the manufacturer's protocol for the knockdown of target genes: siRNA: glutathione S-transferase (GST)-π and sphingosine kinase 2 (SphK2); shRNA constructs: pKD-PKCδ-v2. Stable clones were isolated from Huh7 cells transfected with shRNA plasmids were further subjected to stable clone isolation by geneticin. Immunoblotting was performed to confirm the knockdowns.

[7] = molecular target: T1, S1P1 receptor-overexpressing Huh7 cells; experiment: Cell viability in stable S1P1 receptor transfectants; format: cell-based; conditions: two stable S1P1 clones vs wild-type Huh7
Description: as §3
Overexpression of S1P1 Receptors. Huh7 or Hep3B cells were transfected with plasmids encoding S1PR1, Flag-tagged GST-π or hemagglutinin (HA)-tagged, CA-Akt. The corresponding empty vectors were used as controls. Stable clones were selected over 3 weeks by geneticin, and the expression of cloned proteins was confirmed by Western blotting.

[8] = molecular target: T2, PP2A (Serine/Threonine Phosphatase 2A) (Homo sapiens, UniProt P67775); experiment: PP2A functional enzymatic assay (malachite green) in primary CLL cells; format: cell-based; conditions: 24 hrs, OSU-2S 8 μM, untreated about 0.07
T2 construct: endogenous in cells; host or cells: primary CLL cells; Ramos cells
Description: The ability of OSU-2S to induce PP2A (Serine/Threonine Phosphatase 2A) activity in primary CLL cells was measured at 24 hrs by a functional enzymatic assay. Lysates made from OSU-2S 8 μM treated cells are used to immunoprecipitate PP2Ac which was then used as an enzyme to cleave the specific phosphor-peptide substrate in the functional assay. The cleaved free phosphates were measured by adding malachite green detection solutions and measuring the absorbance at A650 nm. Ramos cells were also included, and FTY720 was used as the control.

[9] = system: PTEN, p53, Mcl-1 in Huh7 cells; experiment: Western blot of signaling markers in drug-treated Huh7 cells; format: cell-based; conditions: 24 h
Description: Immunoblotting. Immunoblotting of biomarkers in cell lysates and tumor tissue homogenates was carried out according to a published procedure. Hung et al., Cancer Res., 68, 1204-1212 (2008).

PLC5 cells = experiment: MTT cell viability assay, PLC5; format: cell-based; conditions: 24 h of treatment
Description: as §2, §3

Hep3B cells = experiment: MTT cell viability assay, Hep3B; format: cell-based; conditions: Homo sapiens, 24 h of treatment
Description: as §2, §3

T1 sequence (P21453 whole entry): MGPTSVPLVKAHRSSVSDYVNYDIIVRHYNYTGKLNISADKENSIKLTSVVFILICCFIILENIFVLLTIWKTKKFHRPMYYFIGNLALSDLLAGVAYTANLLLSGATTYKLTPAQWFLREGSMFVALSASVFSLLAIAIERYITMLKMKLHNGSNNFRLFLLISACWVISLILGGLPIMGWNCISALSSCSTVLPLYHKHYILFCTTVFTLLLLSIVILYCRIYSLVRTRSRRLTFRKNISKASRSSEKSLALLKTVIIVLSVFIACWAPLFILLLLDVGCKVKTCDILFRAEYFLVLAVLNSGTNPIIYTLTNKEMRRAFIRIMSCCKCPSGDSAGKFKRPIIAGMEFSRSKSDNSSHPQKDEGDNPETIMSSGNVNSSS
T2 sequence (P67775 whole entry): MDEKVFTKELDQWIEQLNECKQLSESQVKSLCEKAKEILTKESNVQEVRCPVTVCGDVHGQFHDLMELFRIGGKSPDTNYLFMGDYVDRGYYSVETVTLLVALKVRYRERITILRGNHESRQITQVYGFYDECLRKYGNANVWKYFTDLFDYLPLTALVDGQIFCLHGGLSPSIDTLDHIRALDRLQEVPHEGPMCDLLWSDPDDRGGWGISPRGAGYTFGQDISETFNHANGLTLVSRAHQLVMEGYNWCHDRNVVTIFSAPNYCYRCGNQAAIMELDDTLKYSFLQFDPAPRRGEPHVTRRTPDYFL

In the case of `Nc1nc(F)nc2c1ncn2[C@@H]1O[C@H](CO)[C@@H](O)[C@@H]1O` [2-Fara, reference compound], the “caspase 3 activation” value (CLL cells; 24 and 48 hours, products at about 16-18 kD) is reported as “caspase 3 cleaved products”, the “caspase 9 activation” value (CLL cells; products at about 30-34 kD) is reported as “caspase 9 cleaved products” and the “growth (live cells normalized to untreated control)” value (primary CLL cells) is reported as 100%.

For `CCCCCCCCc1ccc(CCC(N)(CO)CO)cc1` [FTY720], the “ectopic Hep3B tumor growth vs vehicle control” value ([1]; 5 mg/kg, i.p. once daily, P<0.001) was “completely suppressed”, the “dose dependency of tumor-suppressive response” value ([1]; 5 and 10 mg/kg i.p. daily) was “no dose dependency” and the “intratumoral biomarkers of drug activity” value ([1]; Hep3B tumor tissue homogenates, Western blot) was “PKCδ and caspase-3 were activated”. The IC50 (Huh7 cells; Homo sapiens, Huh-7, 24 h of treatment, MTT) was 4.8 µM, the “S1P1 receptor internalization and clustering in the cytoplasm” value [2] was “profound effect” and the “drop in the number of T lymphocytes in peripheral blood” value ([3]; 1 mg/kg) was at least 75%. For the same compound, the “changes in circulating B lymphocytes” value [3] was “no comparable changes”, the “sensitivity of normal human hepatocytes relative to malignant cells” value (normal human hepatocytes) was “resistant” and the “mice with abdominal adhesions with varying amounts of peritonitis” value ([4]; 5 mg/kg) was “three”. For the same compound, the “mice with abdominal adhesions with varying amounts of peritonitis” value ([4]; 10 mg/kg) was “all”, the lymphocyte levels ([4]; ectopic tumor-bearing mice at study endpoint) was “minimal to mild lymphopenia” and the “overt toxicity and body weight” value ([4]; ectopic tumor-bearing mice, daily i.p. 5 or 10 mg/kg) was “no overt signs of toxicity and no loss of body weight”. The “tolerability (stable body weights)” value ([4]; orthotopic tumor-bearing mice, daily i.p., 42 days) was “well tolerated”, the “orthotopic tumor burden (bioluminescence)” value [5] was “suppressed mean tumor burden to the original level” and the “effect of SphK2 knockdown on antiproliferative activity (sensitizing effect)” value [6] was “significantly increased”. For the same compound, the “effect of S1P1 receptor overexpression on antiproliferative activity” value [7] was “partially protected”, the “PP2A activity, absorbance at A650 nm” value [8] was “about 0.20” and the “effect on expression levels of PTEN, p53, or Mcl-1” value [9] was “neither OSU-2S nor FTY720 had an appreciable effect”. For the same compound, the IC50 (PLC5 cells) was 6.2 µM and the IC50 (Hep3B cells) was 4.2 µM.

In the case of `CCCCCCCCc1ccc(CCC(N)(CO)COP(=O)(O)O)cc1` (stereo not drawn) [p-FTY720], the “suppression of HCC cell viability by phosphate derivatives” value (Huh7 cells; 24 h, MTT (FIG. 6A)) is reported as “lacks in vitro efficacy”.
